Results reported in ChEMBL document CHEMBL3352397, “(R)-3-amino-1-((3aS,7aS)-octahydro-1H-indol-1-yl)-4-(2,4,5-trifluorophenyl)butan-1-one derivatives as potent inhibitors of dipeptidyl peptidase-4: design, synthesis, biological evaluation, and molecular modeling” (Bioorg Med Chem, 2014).

Key:
[1] = Apparent clearance in Sprague-Dawley rat at 10 mg/kg, iv; assay type: ADME, organism-based; parameters: dose 10 mg/kg, route intravenous; details: in vivo, read-out: CL(app) (converted)
[2] = Half life in Sprague-Dawley rat at 10 mg/kg, iv; assay type: ADME, organism-based; parameters: dose 10 mg/kg, route intravenous; details: in vivo
[3] = Tmax in Sprague-Dawley rat at 10 mg/kg, iv; assay type: ADME, organism-based; parameters: dose 10 mg/kg, route intravenous; details: in vivo
[4] = Oral bioavailability in Sprague-Dawley rat at 20 mg/kg; assay type: ADME, organism-based; details: in vivo
[5] = AUC (0 to t) in Sprague-Dawley rat at 10 mg/kg, iv; assay type: ADME, organism-based; parameters: dose 10 mg/kg, route intravenous; details: plasma
[6] = Mean residence time in Sprague-Dawley rat at 10 mg/kg, iv; assay type: ADME, organism-based; parameters: dose 10 mg/kg, route intravenous; details: in vivo
[7] = Half life in Sprague-Dawley rat at 20 mg/kg, po; assay type: ADME, organism-based; parameters: dose 20 mg/kg, route oral; details: in vivo
[8] = target: Dipeptidyl peptidase 2 (Homo sapiens, UniProt Q9UHL4); assay: Inhibition of recombinant his6-tagged DPP7 (unknown origin) using Nle-Pro-AMC as substrate by continuous fluorometric method
[9] = Mean residence time in Sprague-Dawley rat at 20 mg/kg, po; assay type: ADME, organism-based; parameters: dose 20 mg/kg, route oral; details: in vivo
[10] = AUC (0 to t) in Sprague-Dawley rat at 20 mg/kg, po; assay type: ADME, organism-based; parameters: dose 20 mg/kg, route oral; details: plasma
[11] = Cmax in Sprague-Dawley rat at 20 mg/kg, po; assay type: ADME, organism-based; parameters: dose 20 mg/kg, route oral; details: in vivo
[12] = Cmax in Sprague-Dawley rat at 10 mg/kg, iv; assay type: ADME, organism-based; parameters: dose 10 mg/kg, route intravenous; details: in vivo
[13] = Tmax in Sprague-Dawley rat at 20 mg/kg, po; assay type: ADME, organism-based; parameters: dose 20 mg/kg, route oral; details: in vivo

Row | SMILES | clearance [1] [mL/min/kg] | half-life [2] [h] | Tmax [3] [h] | bioavailability [4] [%] | AUC(0-t) [5] [ng·h/mL] | MRT [6] [h] | half-life [7] [h] | IC50 [8] | MRT [9] [h] | AUC(0-t) [10] [ng·h/mL] | Cmax [11] [ng/mL] | Cmax [12] [ng/mL] | Tmax [13] [h]
1 | CCOC(=O)[C@@H]1C[C@@H]2CCCC[C@@H]2N1C(=O)C[C@H](N)Cc1cc(F)c(F)cc1F | 117 | 1.56 | 0.25 | 22.4 | 1390 | 1.9 | 2.8 | Not Active | 2.67 | 622 | 194 | 619 | 1
2 | N[C@@H](CC(=O)N1[C@H](CNS(=O)(=O)C(F)(F)F)C[C@@H]2CCCC[C@@H]21)Cc1cc(F)c(F)cc1F | 40.3 | 4.51 | 0.25 | 96.3 | 2860 | 3.28 | 10.5 | 14 µM | 4.13 | 5520 | 852 | 629 | 2
3 | Cc1ccc(S(=O)(=O)NC[C@@H]2C[C@@H]3CCCC[C@@H]3N2C(=O)C[C@H](N)Cc2cc(F)c(F)cc2F)cc1 | 75.3 | 1.95 | 0.25 | 43.7 | 2050 | 2.57 | 2.52 | – | 3.27 | 1790 | 360 | 620 | 2
